According to article PMC9415894, “Development of Cross-Reactive Antibodies for the Identification and Treatment of Synthetic Cannabinoid Receptor Agonist Toxicity” (Vaccines, 2022):

What was measured:
Assay type in all cases: binding, mice
[1] = system: antibodies generated from vaccination with hapten 1; test: Competitive ELISA, day 35 pooled sera of hapten 1 vaccine group; settings: for % Inhibition, HAPTEN 1: SCRA at 10 μM; for % Inhibition, HAPTEN 1 / IC50: day 35 pooled sera; for reactivity of hapten 1 antibodies (in words): day 35 sera; for IC50: 11 concentrations
Method: (§1) Vaccination: Vaccine formulation consisted of our bioconjugates at 1 mg/mL (100 μg/mouse), Alum (50 μg/mouse) and a 1 mg/mL CpG ODN 1826 (50 μg/mouse) in 1X PBS solution. Vaccines were shaken at 4 °C for 45 min prior to animal use. Mock vaccines consisted of the same components with the bioconjugate replaced with native KLH. All animals were vaccinated on day zero and received two boosts, one on day 14 and one on day 28. Sera was collected from each animal on days 21 and 35 via retroorbital blood draws.
(§2) Antibody Titers: Costar® 96-well plates were coated with 25 μL of a 5 μg/mL solution of hapten-BSA conjugate and incubated overnight at 37 °C. Plates were then methanol fixed and non-specific protein binding was blocked with 5% Blotto for 30 min. Pooled sera from either day 21 (1:100 in 5% blotto) or 35 (1:400) were added and serially diluted across the plate before incubating at 37 °C for 60 min. Plates were then washed with 1X PBS prior to the addition of secondary antibody conjugated to horse-radish peroxidase, which incubated at 37 °C for 30 min. Equal parts tetramethylbenzidine and hydrogen peroxide (50 μL) were added to each well and reacted for 15 min before being quenched with 50 μL of 2M sulfuric acid. Optical densities were determined at 450 nm using MiniMax 300 plate reader (Molecular Devices). Lastly, midpoint titers were calculated from the % optical density versus log(dilution) using the log(inhibition) vs response variable slope equation on GraphPad Prism v9 (San Diego, CA, USA).
(§3) Competitive ELISA: Costar® 96-well plates were coated as described in the antibody titer section. After the plates are blocked, 25 μL of a 1:titer solution of each BSA-hapten conjugate is added to every well. Equal volume of a 40 μM solution of each SCRA is then added to column one, and 1:2 serially diluted concentrations added across the wells. Optical densities were determined as in titer experiments, and percent inhibitions were evaluated with GraphPad Prism 9 as in titer experiments.

[2] = system: antibodies generated from vaccination with hapten 2; test: Competitive ELISA, day 35 pooled sera of hapten 2 vaccine group; settings: for % Inhibition, HAPTEN 2: SCRA at 10 μM, day 35 pooled sera
Method: as §1, §2, §3

[3] = system: antibodies generated following vaccination with hapten 3; test: Competitive ELISA, day 35 pooled sera of hapten 3 vaccine group; settings: for % Inhibition, HAPTEN 3: SCRA at 10 μM; for % Inhibition, HAPTEN 3 / IC50: day 35 pooled sera; for IC50: 11 concentrations; for binding by hapten 3 antibodies (in words): day 35 sera
Method: as §1, §2, §3

[4] = system: antibodies generated following vaccination with hapten 4; test: Competitive ELISA, day 35 pooled sera of hapten 4 vaccine group; settings: for % Inhibition, HAPTEN 4: SCRA at 10 μM; for % Inhibition, HAPTEN 4 / IC50: day 35 pooled sera; for IC50: 11 concentrations; for binding by hapten 4 antibodies (in words): day 35 sera
Method: as §1, §2, §3

SMILES | % Inhibition, HAPTEN 1 [1] [%] | % Inhibition, HAPTEN 2 [2] [%] | % Inhibition, HAPTEN 3 [3] [%] | IC50 [3] [nM] | binding by hapten 3 antibodies (in words) [3] | % Inhibition, HAPTEN 4 [4] [%] | IC50 [4] [nM] | binding by hapten 4 antibodies (in words) [4] | reactivity of hapten 1 antibodies (in words) [1] | reactivity of hapten 2 antibodies (in words) ([2]; day 35 sera) | IC50 for hapten 1 relative to compound 1 ([1]; compared with IC50 against compound 1) | IC50 [1] [nM]
CCCCCn1cc(C(=O)NC(C(=O)OC)C(C)C)c2ccccc21 (centres unmarked) [Compound 3, MMB-PICA] | 0.0 | 15.2 | 91.8 | 38 | micromolar to sub-micromolar | 71.0 | 1260 | bind | – | – | – | –
COC(=O)C(NC(=O)c1nn(CCCCCF)c2ccccc12)C(C)C (centres unmarked) [Compound 6, 5F-AMB] | 16.8 | 28.7 | 57.4 | 3320 | micromolar to sub-micromolar | 63.9 | 2660 | bind | – | – | – | –
COC(=O)C(NC(=O)c1nn(Cc2ccc(F)cc2)c2ccccc12)C(C)C (centres unmarked) [Compound 7, AMB-FUBINACA] | 11.1 | 30.7 | 76.0 | 299 | sub-micromolar | 77.7 | 966 | sub-micromolar | – | – | – | –
CCCCCn1nc(C(=O)NC(C(=O)OC)C(C)C)c2ccccc21 (centres unmarked) [Compound 5, MMB-PINACA] | 6.9 | 25.5 | 82.6 | 269 | micromolar to sub-micromolar | 85.5 | 334 | bind | – | – | – | –
CCCCCn1cc(C(=O)Oc2cccc3ccccc23)c2ccccc21 [Compound 8, NAPIC] | 13.6 | 31.5 | 19.2 | – | – | 11.0 | – | – | no reactivity | little to no reactivity | – | –
COC(=O)C(NC(=O)c1cn(CCCCCF)c2ccccc12)C(C)C (centres unmarked) [Compound 4] | 8.8 | 19.9 | 69.0 | 744 | micromolar to sub-micromolar | 54.3 | 6690 | bind | – | – | – | –
O=C(c1cccc2ccccc12)c1cn(CCCCCF)c2ccccc12 [Compound 2, AM-2201] | 79.3 | 29.5 | 18.0 | – | – | 14.4 | – | – | micromolar | – | approximately five times lower | 1140
CCCCCn1cc(C(=O)c2cccc3ccccc23)c2ccccc21 [Compound 1, JWH-018] | 60.0 | 17.7 | 14.6 | – | – | 10.9 | – | – | micromolar | – | – | 5540
